Test results: PMC5413004, “Small molecule inhibitors of mesotrypsin from a structure-based docking screen” (PLoS ONE, 2017)

Assays:
trypsin IV (mesotrypsin) = conditions: versus trypsin IV (mesotrypsin); cited from earlier work
mesotrypsin [1] = target: T1, mesotrypsin (Homo sapiens, UniProt P35030); assay: Competitive inhibition assay with N-Cbz-Gly-Pro-Arg-pNA, mesotrypsin; format: biochemical; conditions: for Ki: 0.25 nM enzyme, 37°C, pH 8.0, global fit to competitive inhibition, duplicate independent experiments
T1 construct: made in house; host or cells: E. coli
T1 sequence (P35030 81-304 limits assumed): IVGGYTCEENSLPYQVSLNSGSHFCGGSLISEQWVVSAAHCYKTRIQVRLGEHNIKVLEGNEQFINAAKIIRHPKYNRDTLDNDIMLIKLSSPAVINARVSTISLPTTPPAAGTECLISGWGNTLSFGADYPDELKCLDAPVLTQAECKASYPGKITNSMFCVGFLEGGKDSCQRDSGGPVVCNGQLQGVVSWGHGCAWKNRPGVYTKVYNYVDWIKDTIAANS
Description: (§1) Recombinant human anionic trypsinogen, human cationic trypsinogen and human mesotrypsinogen were expressed in E. coli, extracted from inclusion bodies, refolded, purified and activated with bovine enteropeptidase as described in previous work.
(§2) Active mesotrypsin was quantified by active site titration as described in [21] using 4-nitrophenyl-4-guanidinobenzoate (NPGB) from Sigma. Concentrations of colorimetric peptide reporter substrate N-Cbz-Gly-Pro-Arg-pNA (Sigma) for the activity and competitive inhibition assay were determined by end point assay. Working stocks for compounds were diluted in dimethylsulfoxide (DMSO) and stored at -20°C. Compounds were assessed for mesotrypsin inhibitory activity in reactions carried out in cuvettes at 37°C in a Varian Cary-100 spectrophotometer. Reactions consisted of 0.25 nM enzyme, 100 μM reporter substrate, 100 mM Tris-HCl pH 8.0, 1 mM CaCl2, and a compound concentration range between 50 nM to 500 μM in the assay. Reactions were followed for approximately three minutes, with the initial rates determined by the linear increase in absorbance resulting from para-nitroaniline production (ε410 = 8480 M^-1 cm^-1). Absorbance versus compound concentration was plotted on a Linear-Log scale to determine IC50.
(§3) The competitive inhibition assay reactions consisted of 0.25 nM enzyme, five reporter substrate concentrations between 10 μM-200 μM, and five inhibitory compound concentrations between 1–30 μM. Reactions were followed for approximately 3 minutes, and the initial rate data were globally fitted using Prism (GraphPad Software, San Diego CA) by non-linear regression based on Eq 1. Results are from duplicate independent experiments.
(§4) V= Kcat[E]o[S]/Km (1+[I]/Ki)+[S] (1)

[2] = target: T2, trypsin 2 (anionic trypsin) (Homo sapiens, UniProt P07478); assay: Competitive inhibition assay, anionic trypsin; format: biochemical; conditions: human trypsin 2
T2 construct: made in house; host or cells: E. coli
T2 sequence (P07478 24-247): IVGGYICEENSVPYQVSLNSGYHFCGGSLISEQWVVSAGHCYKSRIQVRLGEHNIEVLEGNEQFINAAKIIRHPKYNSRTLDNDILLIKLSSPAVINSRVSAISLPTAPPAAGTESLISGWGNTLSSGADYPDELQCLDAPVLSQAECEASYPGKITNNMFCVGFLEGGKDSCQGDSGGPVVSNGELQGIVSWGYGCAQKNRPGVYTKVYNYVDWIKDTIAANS
Protocol: (§5) To assess compound selectivity we determined Ki for the three compounds towards related human trypsin isoforms trypsin 1 (cationic trypsin) and trypsin 2 (anionic trypsin).
as §1, §3, §4

[3] = target: T3, trypsin 1 (cationic trypsin) (Homo sapiens, UniProt P07477); assay: Competitive inhibition assay, cationic trypsin; format: biochemical; conditions: human trypsin 1
T3 construct: made in house; host or cells: E. coli
Protocol: as §5, §1, §3, §4

mesotrypsin [4] = target: T1, mesotrypsin; assay: Mesotrypsin activity assay (colorimetric, N-Cbz-Gly-Pro-Arg-pNA); format: biochemical; conditions: 0.25 nM enzyme, 100 μM substrate, compound 50 nM to 500 μM, 37°C
Protocol: Compounds were tested by an in vitro activity assay utilizing the colorimetric peptide reporter substrate N-Cbz-Gly-Pro-Arg-pNA. The assay monitors the rate of para-nitroaniline production after substrate cleavage by mesotrypsin.
as §1
as §2, with “Reactions consisted of 0.25 nM enzyme, 100 μM reporter substrate, 100 mM Tris-HCl pH 8.0, 1 mM CaCl2, and a compound concentration range between 50 nM to 500 μM in the assay.” left out

Row | Ki (mesotrypsin [1]) [µM] | inhibition mode (mesotrypsin [1]; multiple substrate and compound concentrations, Lineweaver-Burk) | Ki [2] [µM] | Ki [3] [µM] | inhibitory activity towards mesotrypsin (mesotrypsin [4]) | Structure (SMILES) | Ki (trypsin IV (mesotrypsin)) [µM]
1 |  |  |  |  |  | N=C(N)c1ccccc1 [Benzamidine] | 22
2 | 3.66 | competitive inhibitor | 2.29 ± 0.21 | 3.44 ± 0.41 | low micromolar range | N=C(N)c1ccc(/N=N/Nc2ccc(C(=N)N)cc2)cc1 [Diminazene] | 
3 | 10.6 |  | 1.7 ± 0.05 | 3.35 ± 0.35 | low micromolar range | N=C(N)c1ccc(/C=C/c2ccc(C(=N)N)cc2O)cc1 [Hydroxystilbamidine, hydroxystilbamidine] | 
4 | 5.1 |  | 1.06 ± 0.01 | 3.12 ± 0.6 |  | N=C(N)c1ccc(OCCCCCOc2ccc(C(=N)N)cc2)cc1 [Pentamidine, pentamidine] | 
